Results reported in patent US20260176270A1 (Exelixis, Inc., priority 2022, published 2026).
Read-outs that look alike come from different tables or passages of the source.

Legend:
[1] = molecular target: T1, PKMYT1 (Homo sapiens, UniProt Q99640); experiment: ADP-Glo PKMYT1 ATP-depletion assay; details: 50 nM PKMYT1, 13.3 nM CDK1, read-out: Biochemical IC50
T1 construct: PKMYT1 (93 kD, full length, N-terminal GST tag from Signal Chem); GST (N); purchased Signal Chem
T1 sequence (Q99640 1-499): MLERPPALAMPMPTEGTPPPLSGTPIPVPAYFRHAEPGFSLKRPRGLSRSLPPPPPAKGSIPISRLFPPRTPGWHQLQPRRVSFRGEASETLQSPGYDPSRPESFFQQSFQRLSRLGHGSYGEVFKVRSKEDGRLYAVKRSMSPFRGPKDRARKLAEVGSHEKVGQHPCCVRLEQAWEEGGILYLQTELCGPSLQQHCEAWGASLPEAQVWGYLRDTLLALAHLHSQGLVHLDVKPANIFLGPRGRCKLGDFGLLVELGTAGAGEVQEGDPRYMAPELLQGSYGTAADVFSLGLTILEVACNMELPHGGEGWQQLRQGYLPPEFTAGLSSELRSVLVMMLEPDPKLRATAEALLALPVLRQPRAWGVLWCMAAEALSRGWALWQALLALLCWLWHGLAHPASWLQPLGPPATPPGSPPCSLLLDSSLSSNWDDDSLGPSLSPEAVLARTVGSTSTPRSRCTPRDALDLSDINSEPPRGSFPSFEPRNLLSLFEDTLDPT
Procedure, shortened: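 Full-length N-terminal GST-tagged PKMYT1 (50 nM) with GST-CDK1 (13.3 nM) as substrate and 88 µM ATP, in Hepes buffer with MgCl2, MnCl2, DTT and BSA; DMSO <1%. Incubated 120 min at RT. ADP formed was quantified by ADP-Glo luminescence and used to derive biochemical IC50.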

[2] = test system: phosphorylation of CDK1 at Thr14 in HCC1806 cells; experiment: Cell lysate AlphaLISA assay measuring inhibition of phosphorylation of CDK1 Thr14; assay type: cell-based; details: read-out: Cellular IC50
Procedure, shortened: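 HCC1806 cells seeded overnight, then treated 4 h at 37 °C, 5% CO2 with compounds in DMSO; washed and lysed, lysates frozen overnight at −80 °C. CDK1 Thr14 phosphorylation read by AlphaLISA SureFire Ultra; data normalized to DMSO (0% inhibition) and 3 μM reference compound to give IC50.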

SMILES	IC50 [1]	IC50 ([2]; 4 hours)	IC50 ([2]; Homo sapiens, HCC1806, 4 h)
Cc1ccc(O)c(C)c1-c1c(N)c(C(N)=O)nc2ccccc12 [Compound 22, 3-Amino-4-(3-hydroxy-2,6-dimethylphenyl)quinoline-2-carboxamide]	50 to 500 nM	1000 to 5000 nM	–
Cc1ccc(O)c(C)c1-c1c(N)c(C(N)=O)nc2c(F)cccc12 [Compound 25]	50 to 500 nM	–	1000 to 5000 nM
Cc1ccc(O)c(C)c1-c1c(N)c(C(N)=O)nc2c(C)cccc12 [Compound 27, 3-Amino-4-(3-hydroxy-2,6-dimethylphenyl)-8-methylquinoline-2-carboxamide]	500 to 1000 nM	–	1000 to 5000 nM
Cc1ccc(O)c(C)c1-c1c(N)c(C(N)=O)nc2c(C(F)(F)F)cccc12 [Compound 28, 3-Amino-4-(3-hydroxy-2,6-dimethylphenyl)-8-(trifluoromethyl)quinoline-2-carboxamide]	50 to 500 nM	–	50 to 500 nM
Cc1ccc(O)c(C)c1-c1c(N)c(C(N)=O)nc2ccc(C(F)(F)F)cc12 [Compound 34]	1000 to 5000 nM	–	1000 to 5000 nM
Cc1ccc(O)c(C)c1-c1c(N)c(C(N)=O)nc2ccc(Cl)cc12 [Compound 36, 3-Amino-6-chloro-4-(3-hydroxy-2,6-dimethyl-phenyl) quinoline-2-carboxamide]	50 to 500 nM	–	1000 to 5000 nM
Cc1c(O)cccc1-c1c(N)c(C(N)=O)nc2cc(Cl)ccc12 [Compound 37, 3-Amino-7-chloro-4-(3-hydroxy-2-methylphenyl)quinoline-2-carboxamide]	1000 to 5000 nM	–	1000 to 5000 nM
Cc1ccc(O)c(C)c1-c1c(N)c(C(N)=O)nc2cc(Cl)ccc12 [Compound 42, 3-Amino-7-chloro-4-(3-hydroxy-2,6-dimethylphenyl)quinoline-2-carboxamide]	500 to 1000 nM	–	1000 to 5000 nM
Cc1ccc(O)c(C)c1-c1c(N)c(C(N)=O)nc2cc(F)ccc12 [Compound 43, 3-Amino-7-fluoro-4-(3-hydroxy-2,6-dimethylphenyl)quinoline-2-carboxamide]	50 to 500 nM	–	1000 to 5000 nM
Cc1ccc2c(-c3cccc(O)c3C)c(N)c(C(N)=O)nc2c1 [Compound 46, 3-Amino-4-(3-hydroxy-2-methylphenyl)-7-methylquinoline-2-carboxamide]	1000 to 5000 nM	–	≥ 5000 nM
COc1ccc2c(-c3c(C)ccc(O)c3C)c(N)c(C(N)=O)nc2c1 [Compound 47, 3-Amino-4-(3-hydroxy-2,6-dimethylphenyl)-7-methoxyquinoline-2-carboxamide]	1000 to 5000 nM	–	1000 to 5000 nM
COc1ccc2nc(C(N)=O)c(N)c(-c3c(C)ccc(O)c3C)c2c1 [Compound 48, 3-Amino-4-(3-hydroxy-2,6-dimethylphenyl)-6-methoxyquinoline-2-carboxamide]	50 to 500 nM	–	50 to 500 nM
Cc1c(O)cccc1-c1cc(C(N)=O)nc2c(C)ccc(C)c12 [Compound 52, 4-(3-Hydroxy-2-methylphenyl)-5,8-dimethylquinoline-2-carboxamide]	≥ 5000 nM	–	≥ 5000 nM
Cc1ccc2nc(C(N)=O)c(N)c(-c3cccc(O)c3C)c2c1 [Compound 55, 3-Amino-4-(3-hydroxy-2-methylphenyl)-6-methylquinoline-2-carboxamide]	50 to 500 nM	–	1000 to 5000 nM
Cc1c(O)cccc1-c1c(N)c(C(N)=O)nc2cccc(F)c12 [Compound 56, 3-Amino-5-fluoro-4-(3-hydroxy-2-methyl-phenyl)quinoline-2-carboxamide]	50 to 500 nM	–	500 to 1000 nM
Cc1c(O)cccc1-c1c(N)c(C(N)=O)nc2cc(C(F)(F)F)ccc12 [Compound 59, 3-Amino-4-(3-hydroxy-2-methylphenyl)-7-(trifluoromethyl) quinoline-2-carboxamide]	≥ 5000 nM	1000 to 5000 nM	–

SMILES	IC50 [1]	IC50 ([2]; 4 hours)	IC50 ([2]; Homo sapiens, HCC1806, 4 h)
Cc1ccc(O)c(C)c1-c1cc(C(N)=O)cc2cccnc12 [Compound 60, 8-(3-Hydroxy-2,6-dimethyl-phenyl)quinoline-6-carboxamide]	500 to 1000 nM	–	≥ 5000 nM
Cc1c(O)cccc1-c1c(N)c(C(N)=O)cc2cccnc12 [Compound 61, 7-Amino-8-(3-hydroxy-2-methylphenyl)quinoline-6-carboxamide]	< 50 nM	–	50 to 500 nM
Cc1ccc(O)c(C)c1-c1c(N)c(C(N)=O)cc2cccnc12 [Compound 64, 7-Amino-8-(3-hydroxy-2,6-dimethylphenyl)quinoline-6-carboxamide]	50 to 500 nM	–	50 to 500 nM
Cc1c(O)cccc1-c1c(N)c(C(N)=O)cc2ncccc12 [Compound 67, 6-Amino-5-(3-hydroxy-2-methylphenyl)quinoline-7-carboxamide]	50 to 500 nM	1000 to 5000 nM	–
Cc1ccc2[nH]ncc2c1-c1cc(C(N)=O)cc2nccnc12 [Compound 70, 8-(5-Methyl-1H-indazol-4-yl)quinoxaline-6-carboxamide]	≥ 5000 nM	–	≥ 5000 nM
Cc1n[nH]c2cccc(-c3cc(C(N)=O)cc4nccnc34)c12 [Compound 72, 8-(3-Methyl-1H-indazol-4-yl)quinoxaline-6-carboxamide]	≥ 5000 nM	–	≥ 5000 nM
Cc1c(O)cccc1-c1c(N)c(C(N)=O)cc2nccnc12 [Compound 73, 7-Amino-8-(3-hydroxy-2-methyl-phenyl)quinoxaline-6-carboxamide]	< 50 nM	–	50 to 500 nM
Cc1ccc(O)c(C)c1-c1cc(C(N)=O)cc2nccnc12 [Compound 74, 8-(3-Hydroxy-2,6-dimethyl-phenyl)quinoxaline-6-carboxamide]	500 to 1000 nM	–	≥ 5000 nM
NC(=O)c1cc(-c2cccc3[nH]ncc23)c2nccnc2c1 [Compound 75, 8-(1H-indazol-4-yl)quinoxaline-6-carboxamide]	≥ 5000 nM	–	≥ 5000 nM
Cc1ccc2[nH]ncc2c1-c1c(N)c(C(N)=O)cc2nccnc12 [Compound 77, 7-Amino-8-(5-methyl-1H-indazol-4-yl)quinoxaline-6-carboxamide]	50 to 500 nM	–	1000 to 5000 nM
Cc1c(O)cccc1-c1cc(C(N)=O)cc2nccnc12 [Compound 80, 8-(3-Hydroxy-2-methylphenyl)quinoxaline-6-carboxamide]	1000 to 5000 nM	–	≥ 5000 nM
Cc1ccc(O)c(C)c1-c1c(N)c(C(N)=O)cc2nccnc12 [Compound 82, 7-Amino-8-(3-hydroxy-2,6-dimethylphenyl)quinoxaline-6-carboxamide]	< 50 nM	–	50 to 500 nM
Cc1nc2cc(C(N)=O)c(N)c(-c3cccc(O)c3C)c2nc1C [Compound 91, 7-Amino-8-(3-hydroxy-2-methylphenyl)-2,3-dimethylquinoxaline-6-carboxamide]	50 to 500 nM	–	50 to 500 nM
Cc1ccc(O)c(C)c1-c1c(N)c(C(N)=O)cc2nc(C)c(C)nc12 [Compound 94, 7-Amino-8-(3-hydroxy-2,6-dimethylphenyl)-2,3-dimethylquinoxaline-6-carboxamide]	< 50 nM	–	50 to 500 nM
Cc1c(O)cccc1-c1c(N)c(C(N)=O)cc2nc(C(F)(F)F)cnc12 [Compound 96, 7-Amino-8-(3-hydroxy-2-methylphenyl)-3-(trifluoromethyl)quinoxaline-6-carboxamide]	50 to 500 nM	1000 to 5000 nM	–
NC(=O)c1cc2nccnc2c(-c2cccc(O)c2Cl)c1N [Compound 97, 7-Amino-8-(2-chloro-3-hydroxyphenyl)quinoxaline-6-carboxamide]	< 50 nM	–	50 to 500 nM
